Source: ChEMBL document CHEMBL1201862, “PubChem BioAssay data set” (2004)
Active and inactive are the calls of the source.

Legend:
[1] = molecular target: T1, Oxysterols receptor LXR-beta (Homo sapiens, UniProt P55055); format: functional, cell-based;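 further: agonist activity at LXR measured by a cell-based luminescence readout across a dose range, run as a counterscreen for daf-12 agonists; HEK293 cells with Gal4-LXR fusion and GAL4-driven luciferase reporter; potency for activation of Gal4-LXR reporter so compounds are agonists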
T1 sequence (P55055 whole entry): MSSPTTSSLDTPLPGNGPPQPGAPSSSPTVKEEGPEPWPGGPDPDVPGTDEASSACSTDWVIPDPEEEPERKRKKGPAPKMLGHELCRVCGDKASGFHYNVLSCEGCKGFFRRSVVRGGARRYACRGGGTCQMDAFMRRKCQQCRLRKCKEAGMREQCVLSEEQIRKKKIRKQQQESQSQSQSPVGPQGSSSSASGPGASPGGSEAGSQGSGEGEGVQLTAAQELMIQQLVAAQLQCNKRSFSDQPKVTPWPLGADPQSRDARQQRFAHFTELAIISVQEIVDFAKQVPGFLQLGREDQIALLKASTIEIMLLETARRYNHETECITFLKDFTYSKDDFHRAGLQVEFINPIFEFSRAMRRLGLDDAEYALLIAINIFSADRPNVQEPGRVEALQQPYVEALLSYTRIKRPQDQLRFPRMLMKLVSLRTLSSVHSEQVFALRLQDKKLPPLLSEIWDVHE

[2] = molecular target: T2, Heat shock factor protein 1 (Mus musculus, UniProt P38532); experiment: HSF1 potentiators in luciferase reporter cells, confirmation, cell-based, NIH3T3, luminescence, dose retest (AID 435004); format: functional;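 further: stress induced by proteasome inhibitor MG132 added 30 min after compound; luciferase reporter driven by HSF1 response element in NIH3T3 cells; actives raise luminescence as potentiators of the MG132 stress response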
T2 sequence (P38532 whole entry): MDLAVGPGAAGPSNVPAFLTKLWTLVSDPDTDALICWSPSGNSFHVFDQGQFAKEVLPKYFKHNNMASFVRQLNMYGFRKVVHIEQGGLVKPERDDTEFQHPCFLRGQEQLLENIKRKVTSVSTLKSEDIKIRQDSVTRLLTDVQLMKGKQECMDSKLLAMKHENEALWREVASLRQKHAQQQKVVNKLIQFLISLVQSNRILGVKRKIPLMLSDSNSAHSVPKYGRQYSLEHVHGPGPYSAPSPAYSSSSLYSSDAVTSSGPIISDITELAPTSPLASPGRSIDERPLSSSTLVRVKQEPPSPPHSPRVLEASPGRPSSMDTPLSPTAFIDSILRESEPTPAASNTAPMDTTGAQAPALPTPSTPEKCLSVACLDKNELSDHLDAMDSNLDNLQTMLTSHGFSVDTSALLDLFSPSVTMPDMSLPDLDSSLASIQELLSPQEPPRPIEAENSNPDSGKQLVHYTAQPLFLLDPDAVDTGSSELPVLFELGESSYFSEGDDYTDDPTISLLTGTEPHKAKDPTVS

[3] = molecular target: Major prion protein (Homo sapiens, UniProt P04156); format: functional, cell-based
[4] = cells
[5] = Counterscreen for inhibitors of Trypanosoma brucei methionyl tRNA synthetase (MetRS): Luminescence-based cell-based high throughput dose response assay to identify compounds that are cytotoxic to Jurkat human T lymphocyte cells.; format: functional
[6] = molecular target: T3, Methionyl-tRNA synthetase, putative (Trypanosoma brucei brucei, UniProt Q38C91); format: functional, Trypanosoma brucei brucei strain 927/4 GUTat10.1
T3 sequence (Q38C91 whole entry): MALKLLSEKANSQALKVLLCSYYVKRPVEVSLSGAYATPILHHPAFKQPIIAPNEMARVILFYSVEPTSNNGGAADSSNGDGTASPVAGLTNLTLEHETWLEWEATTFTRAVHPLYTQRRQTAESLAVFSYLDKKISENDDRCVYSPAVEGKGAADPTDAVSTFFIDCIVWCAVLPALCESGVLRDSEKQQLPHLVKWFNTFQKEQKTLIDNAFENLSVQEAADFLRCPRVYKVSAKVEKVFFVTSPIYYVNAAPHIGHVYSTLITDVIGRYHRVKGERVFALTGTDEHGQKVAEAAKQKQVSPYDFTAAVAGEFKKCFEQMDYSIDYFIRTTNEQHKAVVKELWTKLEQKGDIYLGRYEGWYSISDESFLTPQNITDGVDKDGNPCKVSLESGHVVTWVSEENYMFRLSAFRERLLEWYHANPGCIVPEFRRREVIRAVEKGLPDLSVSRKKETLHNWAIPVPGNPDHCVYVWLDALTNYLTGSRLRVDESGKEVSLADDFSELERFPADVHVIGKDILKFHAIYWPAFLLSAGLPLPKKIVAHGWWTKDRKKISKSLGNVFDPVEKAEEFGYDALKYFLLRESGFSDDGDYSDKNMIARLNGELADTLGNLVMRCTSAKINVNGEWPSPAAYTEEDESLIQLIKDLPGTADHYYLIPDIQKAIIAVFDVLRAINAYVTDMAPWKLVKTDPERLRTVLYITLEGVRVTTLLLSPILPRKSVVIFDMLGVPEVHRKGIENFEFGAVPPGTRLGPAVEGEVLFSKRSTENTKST

[7] = molecular target: T3, Methionyl-tRNA synthetase, putative; format: functional, Trypanosoma brucei brucei strain 927/4 GUTat10.1; remark: listed apart in the source
[8] = molecular target: Cytochrome P450 2C9 (Homo sapiens, UniProt P11712)
Chain of Cytochrome P450 2C9 (P11712 whole entry): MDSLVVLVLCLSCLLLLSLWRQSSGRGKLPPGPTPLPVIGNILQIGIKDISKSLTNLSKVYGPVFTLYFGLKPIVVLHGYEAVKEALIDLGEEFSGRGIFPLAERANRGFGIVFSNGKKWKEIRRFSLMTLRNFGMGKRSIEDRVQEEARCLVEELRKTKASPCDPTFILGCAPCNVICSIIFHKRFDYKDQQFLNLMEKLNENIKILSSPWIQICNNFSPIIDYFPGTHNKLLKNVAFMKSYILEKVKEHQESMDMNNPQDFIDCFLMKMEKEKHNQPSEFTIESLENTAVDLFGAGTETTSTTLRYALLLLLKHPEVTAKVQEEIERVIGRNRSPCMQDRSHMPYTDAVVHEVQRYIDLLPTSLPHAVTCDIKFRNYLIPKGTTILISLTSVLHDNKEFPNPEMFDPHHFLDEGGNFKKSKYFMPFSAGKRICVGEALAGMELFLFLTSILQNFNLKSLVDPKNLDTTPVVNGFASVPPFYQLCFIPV

[9] = molecular target: T4, Histone-lysine N-methyltransferase NSD2 (Homo sapiens, UniProt O96028); format: biochemical
T4 sequence (O96028 whole entry): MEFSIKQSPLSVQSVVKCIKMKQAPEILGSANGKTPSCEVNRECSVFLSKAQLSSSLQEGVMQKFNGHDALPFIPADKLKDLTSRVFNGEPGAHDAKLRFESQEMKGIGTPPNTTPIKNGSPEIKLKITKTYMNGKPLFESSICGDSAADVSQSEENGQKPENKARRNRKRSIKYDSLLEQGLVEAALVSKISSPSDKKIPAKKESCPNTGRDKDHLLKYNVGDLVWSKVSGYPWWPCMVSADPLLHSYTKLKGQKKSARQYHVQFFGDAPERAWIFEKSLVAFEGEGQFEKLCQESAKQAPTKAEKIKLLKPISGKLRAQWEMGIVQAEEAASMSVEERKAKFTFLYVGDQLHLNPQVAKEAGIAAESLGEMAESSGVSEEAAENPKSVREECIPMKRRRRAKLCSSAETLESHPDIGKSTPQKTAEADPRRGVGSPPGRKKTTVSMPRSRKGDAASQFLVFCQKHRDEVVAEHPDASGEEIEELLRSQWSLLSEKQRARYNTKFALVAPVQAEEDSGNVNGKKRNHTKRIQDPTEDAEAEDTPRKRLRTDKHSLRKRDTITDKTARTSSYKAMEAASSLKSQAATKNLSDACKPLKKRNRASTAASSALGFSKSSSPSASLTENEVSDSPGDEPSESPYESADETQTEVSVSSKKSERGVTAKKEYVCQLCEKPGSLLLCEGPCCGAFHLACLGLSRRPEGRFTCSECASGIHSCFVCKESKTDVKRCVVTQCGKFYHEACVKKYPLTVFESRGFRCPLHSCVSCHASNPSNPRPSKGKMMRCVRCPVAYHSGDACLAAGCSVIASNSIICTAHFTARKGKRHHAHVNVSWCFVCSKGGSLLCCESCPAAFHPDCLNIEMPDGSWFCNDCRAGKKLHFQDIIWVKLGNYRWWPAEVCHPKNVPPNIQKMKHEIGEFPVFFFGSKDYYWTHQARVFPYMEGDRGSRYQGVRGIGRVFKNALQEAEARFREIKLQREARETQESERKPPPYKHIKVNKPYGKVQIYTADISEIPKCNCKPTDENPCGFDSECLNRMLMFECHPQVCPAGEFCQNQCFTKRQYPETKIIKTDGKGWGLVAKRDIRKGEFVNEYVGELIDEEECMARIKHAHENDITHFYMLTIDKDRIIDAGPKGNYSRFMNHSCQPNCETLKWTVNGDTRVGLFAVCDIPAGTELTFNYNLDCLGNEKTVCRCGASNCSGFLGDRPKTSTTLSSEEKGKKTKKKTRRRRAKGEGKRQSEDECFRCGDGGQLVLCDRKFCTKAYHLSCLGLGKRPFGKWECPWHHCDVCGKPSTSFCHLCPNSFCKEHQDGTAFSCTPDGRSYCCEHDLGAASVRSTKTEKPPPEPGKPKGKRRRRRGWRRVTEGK

[10] = molecular target: T5, Protein RecA (Mycobacterium tuberculosis, UniProt P9WHJ3); experiment: Fluorescence Cell-Free Homogeneous Dose Retest to Identify Inhibitors of RecA-Intein Splicing Activity. [Related pubchem assays (depositor defined):AID2097, AID2223, AID489010, AID492950]; format: functional
T5 sequence (P9WHJ3 whole entry): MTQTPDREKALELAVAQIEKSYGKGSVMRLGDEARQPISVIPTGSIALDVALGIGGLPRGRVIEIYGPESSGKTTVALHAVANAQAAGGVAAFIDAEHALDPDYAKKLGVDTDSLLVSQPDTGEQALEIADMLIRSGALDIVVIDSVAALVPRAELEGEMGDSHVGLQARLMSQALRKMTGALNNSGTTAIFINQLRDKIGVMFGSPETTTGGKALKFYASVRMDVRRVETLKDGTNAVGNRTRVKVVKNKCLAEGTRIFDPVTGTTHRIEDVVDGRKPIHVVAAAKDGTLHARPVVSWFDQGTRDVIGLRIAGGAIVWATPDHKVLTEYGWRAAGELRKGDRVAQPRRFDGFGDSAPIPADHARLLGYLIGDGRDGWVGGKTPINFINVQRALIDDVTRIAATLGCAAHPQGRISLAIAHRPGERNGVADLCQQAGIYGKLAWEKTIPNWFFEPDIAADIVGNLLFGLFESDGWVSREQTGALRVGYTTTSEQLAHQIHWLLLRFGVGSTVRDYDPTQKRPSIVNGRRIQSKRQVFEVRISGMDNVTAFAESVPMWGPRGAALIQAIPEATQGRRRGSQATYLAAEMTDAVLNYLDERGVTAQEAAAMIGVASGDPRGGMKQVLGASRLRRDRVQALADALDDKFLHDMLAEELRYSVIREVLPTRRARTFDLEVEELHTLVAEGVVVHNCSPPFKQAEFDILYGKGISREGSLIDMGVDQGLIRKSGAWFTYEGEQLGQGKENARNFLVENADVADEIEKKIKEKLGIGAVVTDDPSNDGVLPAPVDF

[11] = off-target signal loss in HeLa-CEM21 co-culture – HeLa F-luc CTL cells, cherry-picked, counter-screen for HIV-1 Env fusion inhibitor project, dose response (AID 652040); format: functional, cell-based;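 further: potency for signal decrease marking cytotoxic or nonspecific inhibition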
[12] = ZM109 Env clade C HIV-1 fusion inhibitors, dose response, HeLa effector, CEM target cells, luciferase, cherry-pick (AID 652058); format: functional, cell-based
[13] = test system: INS1; experiment: beta cell apoptosis inhibitors, cytokine rescue, dose response, luminescence, retest (AID 449756); format: functional, cell-based; conditions: Rattus norvegicus;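 further: cell death triggered by IL-1 beta plus TNF-alpha plus IFN-gamma mixture; protective hits raise ATP signal compared with cytokine alone wells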
[14] = CEM21 lymphoblast cell cytotoxicity, dose response, cytotoxicity control for viral fusion inhibitor project, CellTiter-Glo luminescence, cherry-picked (AID 652042); format: functional, cell-based;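 further: potency for signal decrease meaning cytotoxicity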
[15] = inhibitors of clade B AD8 Env fusion, dose response, cell-based, cherry-pick (AID 652062); format: functional;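 further: luciferase signal from cell-cell fusion driven by HIV-1 clade B AD8 Env; potency is for inhibitors of fusion seen as a drop in luminescence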
[16] = inhibitors of HIV Env-driven cell fusion, dose response, cherry-pick (AID 652057); format: functional, cell-based
[17] = A375 melanoma cell viability loss, dose response, counter-screen for MITF inhibitor project, CellTiter-Glo luminescence, dry powder, set 4 (AID 624364); format: functional, cell-based; conditions: A-375;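 further: A375 melanoma cells are MITF independent so this is a counter screen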
[18] = A375 melanoma cell cytotoxicity, dose response, counter-screen for MITF inhibitor project, CellTiter-Glo luminescence, dry powder, set 2 (AID 624489); format: functional, cell-based; conditions: A-375;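 further: actives are compounds lowering A375 viability meaning general cytotoxicity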

For `Cc1ccc2oc(-c3cccc(N)c3)nc2c1`, the EC50 [1] was > 67.6 µM (inactive) and the EC50 [2] was > 260 µM (inconclusive).
In the case of `CCOC(=O)CSc1nc(-c2ccccc2)nc2ccccc12`, the IC50 [3] is reported as 1.73 µM (active) and the IC50 [4] is reported as > 138 µM (inactive).
For `Clc1ccccc1-c1ccc2ncnc(NCc3cccnc3)c2c1`, the IC50 [5] was 83.3 µM (inactive), the IC50 [6] was 17.1 µM (inactive) and the IC50 [7] was 14.1 µM (inactive). For the same molecule, the AC50 [8] was 0.794 µM (inconclusive).
In the case of `CCOC(=O)CSc1nc(COc2ccccc2)nc2ccccc12`, the IC50 [3] is reported as 8.25 µM (active) and the IC50 [4] is reported as > 138 µM (inactive).
For `OCCN=C(S)Nc1ccc2nsnc2c1`, the AC50 [9] was 10.5 µM (active) and the EC50 [10] was 26 µM (active).
In the case of `CC(=O)c1ccc(NC(=O)c2ccc(-n3cncn3)c([N+](=O)[O-])c2)cc1`, the IC50 [5] is reported as 83.3 µM (inactive), the IC50 [6] is reported as 4.12 µM (active) and the IC50 [7] is reported as 7.16 µM (active).
In the case of `CCn1c(-c2ccc(C)cc2)nn(CC(=O)NCCc2ccccc2)c1=S`, the AC50 [11] is reported as 7.04 µM (active), the AC50 [12] is reported as 4.85 µM (active) and the AC50 [13] is reported as 5.9 µM (active). For the same molecule, the AC50 [14] was 51.1 µM (active), the AC50 [15] was 6.95 µM (active) and the AC50 [16] was 8.88 µM (active).
With `Cc1[nH]c2ccccc2c1C(=O)C(=O)NCCc1ccc(S(N)(=O)=O)cc1` the IC50 [5] was 83.3 µM (inactive), the IC50 [6] was 6.63 µM (active) and the IC50 [7] was 14.8 µM (inactive).
In the case of `CC(=O)NC1=C(c2ccc(Oc3ccccc3)cc2)C(=O)c2ccccc2C1=O`, the AC50 [17] is reported as 59 µM (active) and the AC50 [18] is reported as 31.2 µM (active).
In the case of `CC1(C)Cc2ccccc2-c2[nH]c(=S)[nH]c(=O)c21`, the IC50 [3] is reported as 4.55 µM (active).
In the case of `CCNS(=O)(=O)c1ccc(CCC(=O)Nc2cc(Cl)ccc2Oc2ccccc2)cc1`, the AC50 [11] is reported as 12 µM (active), the AC50 [12] is reported as 2.17 µM (active) and the AC50 [14] is reported as 40.5 µM (active). The AC50 [15] was 11.6 µM (active) and the AC50 [16] was 5.54 µM (active).
In the case of `CC1(C)Cc2ccccc2-c2nc(S)nc(O)c21`, the IC50 [4] is reported as > 138 µM (inactive).
With `Cc1ccc(/C=N/NC(=O)c2ccoc2C)s1` the EC50 [1] was > 67.6 µM (inactive).
In the case of `CCN(CC)CCCNC1=C(N(C)C(C)=O)C(=O)c2ccccc2C1=O`, the AC50 [17] is reported as 5.33 µM (active) and the AC50 [18] is reported as 2.91 µM (active).
